# Test: Storage stability of acylcarnitine-stable isotopes in methanol solution at room temperature (Reference Example 1, LC-MS/MS residual rate)
# Format: physicochemical
# Method: Acylcarnitine solutions were acquired by dissolving acylcarnitine-stable isotopes into methanol to concentrations listed in Table 3. The acylcarnitine-stable isotopes were measured under the following conditions. The acylcarnitine solutions were measured immediately before storage (prepared at the time of use) and after storage for predetermined periods, and the residual rate (%) was calculated from the acquired peak area ratio using Equation 2 described below.
# System: LC-20A series (manufactured by Shimadzu Corporation) and 4000 QTRAP (manufactured by AB Sciex) […]
# Mobile phase: mobile phase A, 0.5% (v/v) formic acid aqueous solution mobile phase B, 500 mmol/L ammonium formate aqueous solution: 500 mmol/L ammonium hydroxide (9:1)/methanol=1/9
# Analysis time: 70 minutes
# LC column: Scherzo SS-C18, 3 μm, 3.0×150 mm (manufactured by Imtact Corporation) Column temperature: 50° C.
# Sample injection amount: 5 μL
# Ionization mode: ESI (electrospray ionization)
# Ion source: Turbo IonSpray
# Q1/Q3 is described in Table 3.
# [1] = storage period 2 M (two months)
Structure (SMILES),Res. Rt (Residual Rate) (storage period 1 M (one month)),Res. Rt (Residual Rate) [1]
[2H]C([2H])([2H])[N+](C)(C)CC(CC(=O)[O-])OC(=O)CCCCCCCCCCCCCCCCC (stereo not shown) [^2H3-Octadecanoylcarnitine],103.7%,69.6%
[2H]C([2H])([2H])[N+](C)(C)CC(CC(=O)[O-])OC(=O)CC(C)(C)O (stereo not shown) [^2H3-(3-Hydroxyisovaleryl)-carnitine],99.9%,97.9%
[2H]C([2H])([2H])[N+](C)(C)CC(CC(=O)[O-])OC(=O)CCCC(=O)O (stereo not shown) [^2H3-Glutarylcarnitine],99.3%,63.3%
[2H]C([2H])([2H])[N+](C[C@H](O)CC(=O)[O-])(C([2H])([2H])[2H])C([2H])([2H])[2H] [^2H9-Carnitine],100.9%,100.2%
[2H]C([2H])([2H])[N+](C)(C)CC(CC(=O)[O-])OC(=O)CCC (stereo not shown) [^2H3-Butyrylcarnitine],101.7%,63.8%
[2H]C([2H])([2H])[N+](C)(C)CC(CC(=O)[O-])OC(=O)CCCCCCC (stereo not shown) [^2H3-Octanoylcarnitine],103.3%,70.3%
[2H]C([2H])([2H])[N+](CC(CC(=O)[O-])OC(=O)CC(C)C)(C([2H])([2H])[2H])C([2H])([2H])[2H] (stereo not shown) [^2H9-Isovalerylcarnitine],100.3%,99.4%
[2H]C([2H])([2H])[N+](C)(C)CC(CC(=O)[O-])OC(=O)CC (stereo not shown) [^2H3-Propionylcarnitine],97.4%,38.5%
[2H]C([2H])([2H])[N+](C)(C)CC(CC(=O)[O-])OC(=O)CCCCCCCCCCC (stereo not shown) [^2H3-Dodecanoylcarnitine],103.1%,84.9%
[2H]C([2H])([2H])[N+](CC(CC(=O)[O-])OC(=O)CCCCCCCCCCCCC)(C([2H])([2H])[2H])C([2H])([2H])[2H] (stereo not shown) [^2H9-Myristoylcarnitine],103.9%,67.8%
[2H]C([2H])([2H])[N+](C)(C)CC(CC(=O)[O-])OC(=O)CCCCCCCCCCCCCCC (stereo not shown) [^2H3-Palmitoylcarnitine],101.2%,62.6%
